Assay [1] deals with human breast cancer cell lines. The following applies: six of eight cancer lines inhibited; cited from earlier work.
The next assay deals with mTOR (Homo sapiens, UniProt P42345). The assay is described as follows: mTOR assay (phosphorylation of 4eBP1, [γ33P]-ATP filter plate). It is filed as biochemical. The following applies: 10 μM ATP, 1 hour at room temperature.
A further assay has as its target T1, PI3K p110α/p85 (Homo sapiens, UniProt P42336).
T1 construct: made in house
The assay is described as follows: PI3K assay ([γ33P]ATP, PtdIns/PtdSer coated plates). It is filed as biochemical. The following applies: 2 μM ATP, 1 hour at RT; read-out: IC50 (PI3Kα).

Another assay deals with PC3. The assay is described as follows: Cell-based proliferation assay, PC3. The following applies: Homo sapiens, PC-3; PC3 cells, 96 h treatment. Here is the method:
(§1) Human cancer cell lines PC3 and DU145 (human prostate cancer cell lines), were obtained from ATCC. They were cultured in the media according to the ATCC work instructions. PC3 and DU145 cells were seeded at 1,000 cells per well in 96-well plates, respectively. The plates were incubated at 37° C., 5% CO2, for 24 h. Cells were treated with compounds at various concentrations for 96 h. Cell proliferation was then quantified using Celltiter96 Aqueous One Solution Cell Proliferation Assay from Promega (Madison Wis.). Dose response curves were plotted to determine IC50 values for the compounds using XL-fit (ID Business Solution, Emeryville, Calif.).

The next assay deals with DU145. The experiment in a line: Cell-based proliferation assay, DU145. The conditions noted are these: Homo sapiens, DU-145; DU145 cells, 96 h treatment. The procedure: as §1

Usually IC50 stands for the point on the concentration scale where inhibition reaches its midpoint.

mTOR, sequence (P42345 1382-2549 limits assumed): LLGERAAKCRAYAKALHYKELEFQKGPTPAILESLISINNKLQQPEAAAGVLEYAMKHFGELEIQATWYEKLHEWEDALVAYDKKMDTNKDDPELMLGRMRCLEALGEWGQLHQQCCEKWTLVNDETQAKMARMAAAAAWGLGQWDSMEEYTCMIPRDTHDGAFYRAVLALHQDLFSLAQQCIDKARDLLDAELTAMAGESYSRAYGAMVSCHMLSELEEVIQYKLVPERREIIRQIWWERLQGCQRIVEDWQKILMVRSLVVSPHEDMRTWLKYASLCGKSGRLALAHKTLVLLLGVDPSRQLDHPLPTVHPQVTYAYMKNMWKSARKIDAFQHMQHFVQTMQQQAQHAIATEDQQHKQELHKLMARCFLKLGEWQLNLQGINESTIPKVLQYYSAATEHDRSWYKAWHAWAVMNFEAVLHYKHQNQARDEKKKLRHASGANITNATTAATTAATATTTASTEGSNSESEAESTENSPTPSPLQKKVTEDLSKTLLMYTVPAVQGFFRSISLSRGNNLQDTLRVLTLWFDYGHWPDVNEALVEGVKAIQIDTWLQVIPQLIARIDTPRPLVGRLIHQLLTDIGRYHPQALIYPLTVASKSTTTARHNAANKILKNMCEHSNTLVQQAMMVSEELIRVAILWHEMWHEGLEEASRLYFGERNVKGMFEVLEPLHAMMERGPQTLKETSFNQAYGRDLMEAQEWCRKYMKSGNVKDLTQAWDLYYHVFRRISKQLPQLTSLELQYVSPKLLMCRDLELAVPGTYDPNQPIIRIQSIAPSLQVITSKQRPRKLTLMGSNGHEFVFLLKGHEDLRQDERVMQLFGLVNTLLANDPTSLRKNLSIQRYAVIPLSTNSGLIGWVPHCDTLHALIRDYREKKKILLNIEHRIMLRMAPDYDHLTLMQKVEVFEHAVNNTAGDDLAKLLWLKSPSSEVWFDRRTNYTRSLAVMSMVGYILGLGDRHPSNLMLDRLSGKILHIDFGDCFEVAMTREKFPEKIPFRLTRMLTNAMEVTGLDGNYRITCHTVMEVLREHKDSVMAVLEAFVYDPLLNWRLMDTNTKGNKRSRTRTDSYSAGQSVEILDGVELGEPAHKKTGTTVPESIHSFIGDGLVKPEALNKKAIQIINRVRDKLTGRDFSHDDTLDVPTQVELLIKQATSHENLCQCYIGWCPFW
T1 sequence (P42336 whole entry): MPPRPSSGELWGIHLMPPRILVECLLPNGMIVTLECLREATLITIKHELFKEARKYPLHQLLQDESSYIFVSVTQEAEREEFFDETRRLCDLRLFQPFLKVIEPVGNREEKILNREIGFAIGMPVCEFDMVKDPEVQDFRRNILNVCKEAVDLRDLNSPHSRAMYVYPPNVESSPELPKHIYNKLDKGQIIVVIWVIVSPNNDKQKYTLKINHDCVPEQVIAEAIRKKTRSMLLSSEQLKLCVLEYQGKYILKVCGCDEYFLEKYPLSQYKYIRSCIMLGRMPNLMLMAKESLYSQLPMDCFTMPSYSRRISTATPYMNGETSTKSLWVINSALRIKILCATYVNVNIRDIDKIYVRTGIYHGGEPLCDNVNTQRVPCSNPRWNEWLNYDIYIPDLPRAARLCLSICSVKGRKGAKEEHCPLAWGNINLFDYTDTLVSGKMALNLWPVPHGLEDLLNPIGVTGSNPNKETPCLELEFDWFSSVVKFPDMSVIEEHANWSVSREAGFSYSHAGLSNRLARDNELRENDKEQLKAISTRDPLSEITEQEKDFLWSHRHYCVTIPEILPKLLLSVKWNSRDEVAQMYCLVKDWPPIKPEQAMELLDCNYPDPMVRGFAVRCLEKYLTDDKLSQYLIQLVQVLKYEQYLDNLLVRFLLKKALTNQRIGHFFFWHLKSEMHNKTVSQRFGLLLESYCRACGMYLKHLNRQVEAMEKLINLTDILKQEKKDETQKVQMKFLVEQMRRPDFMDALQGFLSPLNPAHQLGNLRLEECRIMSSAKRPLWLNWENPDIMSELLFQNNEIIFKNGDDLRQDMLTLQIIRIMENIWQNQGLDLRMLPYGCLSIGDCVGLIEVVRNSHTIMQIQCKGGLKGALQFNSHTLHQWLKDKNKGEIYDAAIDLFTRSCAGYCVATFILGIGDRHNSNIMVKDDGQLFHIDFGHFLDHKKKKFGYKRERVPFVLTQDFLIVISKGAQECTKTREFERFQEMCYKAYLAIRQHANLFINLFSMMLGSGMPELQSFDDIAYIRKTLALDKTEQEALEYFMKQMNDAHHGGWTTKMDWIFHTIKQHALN
T1 sequence (P27986 whole entry partner): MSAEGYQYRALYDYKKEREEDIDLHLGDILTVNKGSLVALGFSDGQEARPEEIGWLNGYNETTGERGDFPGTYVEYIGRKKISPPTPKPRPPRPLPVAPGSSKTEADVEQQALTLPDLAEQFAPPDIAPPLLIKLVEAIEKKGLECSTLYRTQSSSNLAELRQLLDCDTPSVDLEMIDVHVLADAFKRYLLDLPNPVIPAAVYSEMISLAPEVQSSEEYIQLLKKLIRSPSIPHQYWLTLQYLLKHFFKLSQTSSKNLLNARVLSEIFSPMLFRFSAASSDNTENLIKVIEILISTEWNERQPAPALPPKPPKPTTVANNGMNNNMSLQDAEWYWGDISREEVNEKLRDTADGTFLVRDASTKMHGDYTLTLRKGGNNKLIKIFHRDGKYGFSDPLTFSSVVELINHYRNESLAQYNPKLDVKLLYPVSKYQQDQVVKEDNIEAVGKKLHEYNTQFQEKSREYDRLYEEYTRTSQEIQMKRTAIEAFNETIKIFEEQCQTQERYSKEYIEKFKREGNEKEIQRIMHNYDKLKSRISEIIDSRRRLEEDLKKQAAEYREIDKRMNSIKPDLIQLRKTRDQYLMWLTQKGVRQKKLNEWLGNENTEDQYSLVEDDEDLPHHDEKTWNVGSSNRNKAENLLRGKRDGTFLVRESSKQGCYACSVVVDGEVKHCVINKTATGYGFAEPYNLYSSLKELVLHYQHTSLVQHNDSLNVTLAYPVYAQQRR

Turning to `CO[C@H]1C[C@@H]2CC[C@@H](C)[C@@](O)(O2)C(=O)C(=O)N2CCCC[C@H]2C(=O)O[C@H]([C@H](C)C[C@@H]2CC[C@@H](OC(=O)C(C)(CO)CO)[C@H](OC)C2)CC(=O)[C@H](C)/C=C(\C)[C@@H](O)[C@@H](OC)C(=O)[C@H](C)C[C@H](C)/C=C/C=C/C=C/1C` [CCI-779], the IC50 entry in assay [1] is “low nanomolar range”.

With `Cc1cccc(-n2cnc3c(-c4cccc(O)c4)nc(N4CCOCC4)nc32)c1` [Compound 27, 3-(2-Morpholin-4-yl-9-(3-methylphenyl)-9H-purin-6-yl)-phenol], the IC50 is less than 1 µM against mTOR, less than 1 µM on PI3K p110α/p85 and not above 1 µM with PC3.

Take `C=CCCn1cnc2c(-c3cccc(O)c3)nc(N3CCOCC3)nc21` [Compound 22]: the IC50 is less than 1 µM against mTOR, less than 1 µM on PI3K p110α/p85 and not above 1 µM with DU145.

For the compound `CC(C)C(C)n1cnc2c(-c3cccc4[nH]ccc34)nc(N3CCOCC3)nc21` (stereo not drawn) [Compound 101], the figures for the IC50 against mTOR, at PI3K p110α/p85 and in the assay with PC3 were less than 1 µM, less than 1 µM and not above 1 µM, respectively.

Consider `COc1ccc(Cn2cnc3c(-c4cccc(O)c4)nc(N4CCOCC4)nc32)cc1` [Compound 8], for which the IC50 is less than 1 µM at mTOR, less than 1 µM at PI3K p110α/p85 and 1 to 5 µM in the assay on DU145.

With `c1cc(-c2nc(N3CCOCC3)nc3c2ncn3C2CCCC2)c2cc[nH]c2c1` [Compound 63], the results for the IC50 against mTOR, on PI3K p110α/p85 and with DU145 were less than 1 µM, less than 1 µM and 1 to 5 µM, respectively.

Consider `c1cc(-c2nc(N3CCOCC3)nc3c2ncn3CC2CC2)c2cc[nH]c2c1` [Compound 51], for which the figures for the IC50 against mTOR, on PI3K p110α/p85 and in the assay on DU145 were less than 1 µM, less than 1 µM and 1 to 5 µM, respectively.

In the case of `N#CCn1cnc2c(-c3cccc(O)c3)nc(N3CCOCC3)nc21` [Compound 35], the results for the IC50 at mTOR, at PI3K p110α/p85 and with DU145 were less than 1 µM, less than 1 µM and 1 to 5 µM, respectively.

On to `Oc1cccc(-c2nc(N3CCOCC3)nc3c2ncn3CC2CC2)c1` [Compound 50], for which the IC50 is less than 1 µM against mTOR, less than 1 µM at PI3K p110α/p85 and not above 1 µM in the assay on DU145.

`Oc1cccc(-c2nc(N3CCOCC3)nc3c2ncn3Cc2ccccc2)c1` [Compound 2]: the IC50 was less than 1 µM against mTOR, less than 1 µM at PI3K p110α/p85 and 1 to 5 µM with DU145.

Turning to `CC(C1CC1)n1cnc2c(-c3cccc(O)c3)nc(N3CCOCC3)nc21` (stereo not drawn) [Compound 92], the IC50 at mTOR and on PI3K p110α/p85 was less than 1 µM throughout.

Consider `CCC(C)n1c(Cl)nc2c(-c3cccc(O)c3)nc(N3CCOCC3)nc21` (stereo not drawn) [Compound 129], for which the IC50 on mTOR and at PI3K p110α/p85 was less than 1 µM throughout.

For the compound `Oc1cc(F)cc(-c2nc(N3CCOCC3)nc3c2ncn3Cc2ccccc2)c1` [Compound 3], the IC50 against mTOR and on PI3K p110α/p85 was less than 1 µM in each case.

Turning to `O=C(Cc1cccnc1)N1CCC(n2cnc3c(-c4cccc5[nH]ccc45)nc(N4CCOCC4)nc32)CC1` [Compound 105], the IC50 against mTOR and at PI3K p110α/p85 was less than 1 µM throughout.

As for `O=C(Cn1cnc2c(-c3cccc(O)c3)nc(N3CCOCC3)nc21)N1CCOCC1` [Compound 82], the IC50 is 1 to 5 µM on mTOR and less than 1 µM at PI3K p110α/p85.

As for `CCC(C)n1c(S(C)(=O)=O)nc2c(-c3cccc(O)c3)nc(N3CCOCC3)nc21` (stereo not drawn) [Compound 130, 3-(9-sec-Butyl-8-methanesulfonyl-2-morpholin-4-yl-9H-purin-6-yl)-phenol], the IC50 against mTOR and on PI3K p110α/p85 was less than 1 µM each time.

Take `CC(C)(C)OC(=O)N1CCC(n2cnc3c(-c4cccc5[nH]ccc45)nc(N4CCOCC4)nc32)C1` (stereo not drawn) [Compound 62]: the IC50 on mTOR was 1 to 5 µM; on PI3K p110α/p85, less than 1 µM.

With `Oc1cccc(-c2nc(N3CCOCC3)nc3c2ncn3C2CCCC2)c1` [Compound 54], the IC50 is less than 1 µM at mTOR, less than 1 µM at PI3K p110α/p85, not above 1 µM with PC3 and not above 1 µM in the assay on DU145.

As to `CC(c1ccccc1)n1cnc2c(-c3cccc(O)c3)nc(N3CCOCC3)nc21` (stereo not drawn) [Compound 36], the IC50 against mTOR was less than 1 µM; at PI3K p110α/p85, less than 1 µM; in the assay on DU145, 1 to 5 µM.

For `CC1CCC(n2cnc3c(-c4cccc(O)c4)nc(N4CCOCC4)nc32)CC1` (stereo not drawn) [Compound 61], the IC50 on mTOR and on PI3K p110α/p85 was less than 1 µM each time.

For the compound `Oc1cccc(-c2nc(N3CCOCC3)nc3c2nc(-c2cccs2)n3C2CCCCO2)c1` (stereo not drawn) [Compound 116], the IC50 on mTOR and on PI3K p110α/p85 was more than 5 µM each time.

Consider `CCCCNc1nc2c(-c3cccc(O)c3)nc(N3CCOCC3)nc2n1C(C)CC` (stereo not drawn) [Compound 120], for which the IC50 against mTOR and at PI3K p110α/p85 was less than 1 µM throughout.

`CCCCN1CCC(n2cnc3c(-c4cccc(O)c4)nc(N4CCOCC4)nc32)CC1` [Compound 88]: the IC50 on mTOR and at PI3K p110α/p85 was less than 1 µM throughout.

Take `N#CCn1cnc2c(-c3cccc4[nH]ccc34)nc(N3CCOCC3)nc21` [Compound 80]: the IC50 is 1 to 5 µM at mTOR and less than 1 µM on PI3K p110α/p85.

Consider `CCC(C)n1cnc2c(-c3cccc4[nH]ncc34)nc(N3CCOCC3)nc21` (stereo not drawn) [Compound 109], for which the IC50 at mTOR and at PI3K p110α/p85 was less than 1 µM each time.

In the case of `N#Cc1cccc(Cn2cnc3c(-c4cccc(O)c4)nc(N4CCOCC4)nc32)c1` [Compound 9], the IC50 on mTOR and on PI3K p110α/p85 was less than 1 µM in each case.

These data come from patent US20110009403A1, “2-MORPHOLINYLPURINES AS INHIBITORS OF PI3K” (S*BIO Pte Ltd., priority 2007, published 2011).
